Measured values reported in patent publication US10117916B2, “Peptides and combination of peptides for use in immunotherapy against CLL and other cancers” (immatics biotechnologies GmbH, priority 2015, dated 2018).

Legend:
CD8+ T cells = test: In vitro immunogenicity: T-cell priming with aAPCs loaded with peptide/MHC and anti-CD28, pMHC multimer readout; type: cell-based, human; conditions: CD8+ T cells of healthy donors, three stimulation cycles; for Wells positive [%]: HLA-A*02 restricted peptides; for wells (in vitro immunogenicity, positive wells): HLA class I peptides
Description: In an aspect, the peptides are pre-screened for immunogenicity before being included in the warehouse. By way of example, and not limitation, the immunogenicity of the peptides included in the warehouse is determined by a method comprising in vitro T-cell priming through repeated stimulations of CD8+ T cells from healthy donors with artificial antigen presenting cells loaded with peptide/MHC complexes and anti-CD28 antibody.
CD8+ T cells were primed using artificial APCs coated with anti-CD28 mAb and HLA-A*02 in complex with SeqID No 1 peptide (FIG. 3C, left panel), SeqID No 5 peptide (FIG. 3D left panel), SeqID No 32 peptide (FIG. 3E, left panel) and SeqID No 220 peptide (FIG. 3F, left panel), respectively. After three cycles of stimulation, the detection of peptide-reactive cells was performed by 2D multimer staining with A*02/SeqID No 1 (FIG. 3C), A*02/SeqID No 5 (FIG. 3D), A*02/SeqID No 32 (FIG. 3E) or A*02/SeqID No 220 (FIG. 3F). Right panels (FIGS. 3C, 3D, 3E and 3F) show control staining of cells stimulated with irrelevant A*02/peptide complexes. Viable singlet cells were gated for CD8+ lymphocytes. Boolean gates helped excluding false-positive events detected with multimers specific for different peptides.
In order to obtain information regarding the immunogenicity of the TUMAPs of the present invention, the inventors performed investigations using an in vitro T-cell priming assay based on repeated stimulations of CD8+ T cells with artificial antigen presenting cells (aAPCs) loaded with peptide/MHC complexes and anti-CD28 antibody.
In order to perform in vitro stimulations by artificial antigen presenting cells loaded with peptide-MHC complex (pMHC) and anti-CD28 antibody, the inventors first isolated CD8+ T cells from fresh HLA-A*02 leukapheresis products via positive selection using CD8 microbeads (Miltenyi Biotec, Bergisch-Gladbach, Germany) of healthy donors obtained from the University clinics Mannheim, Germany, after informed consent.
PBMCs and isolated CD8+ lymphocytes were incubated in T-cell medium (TCM) until use consisting of RPMI-Glutamax (Invitrogen, Karlsruhe, Germany) supplemented with 10% heat inactivated human AB serum (PAN-Biotech, Aidenbach, Germany), 100 U/ml Penicillin/100 μg/ml Streptomycin (Cambrex, Cologne, Germany), 1 mM sodium pyruvate (CC Pro, Oberdorla, Germany), 20 μg/ml Gentamycin (Cambrex). 2.5 ng/ml IL-7 (PromoCell, Heidelberg, Germany) and 10 U/ml IL-2 (Novartis Pharma, Nirnberg, Germany) were also added to the TCM at this step.
Generation of pMHC/anti-CD28 coated beads, T-cell stimulations and readout was performed in a highly defined in vitro system using four different pMHC molecules per stimulation condition and 8 different pMHC molecules per readout condition.
The purified co-stimulatory mouse IgG2a anti human CD28 Ab 9.3 (Jung et al., 1987) was chemically biotinylated using Sulfo-N-hydroxysuccinimidobiotin as recommended by the manufacturer (Perbio, Bonn, Germany). Beads used were 5.6 μm diameter streptavidin coated polystyrene particles (Bangs Laboratories, Illinois, USA).
800.000 beads/200 μl were coated in 96-well plates in the presence of 4×12.5 ng different biotin-pMHC, washed and 600 ng biotin anti-CD28 were added subsequently in a volume of 200 μl. Stimulations were initiated in 96-well plates by co-incubating 1×10^6 CD8+ T cells with 2×10^5 washed coated beads in 200 μl TCM supplemented with 5 ng/ml IL-12 (PromoCell) for 3 days at 37° C. Half of the medium was then exchanged by fresh TCM supplemented with 80 U/ml IL-2 and incubating was continued for 4 days at 37° C. This stimulation cycle was performed for a total of three times. For the pMHC multimer readout using 8 different pMHC molecules per condition, a two-dimensional combinatorial coding approach was used as previously described (Andersen et al., 2012) with minor modifications encompassing coupling to 5 different fluorochromes.

HLA-A*02:01 = HLA-A*02:01 (Homo sapiens, UniProt P04439, D140Y/D185E/D98H/E176V/E277Q/G131W/G231S/I119V/I121R/I166T/I218V/L300P/L318F/N151K/N90K/P208A/P217A/Q86G/Q94H/R138H/R169H/T345S); test: MHC binding assay: UV-ligand exchange with β2m ELISA (peptide exchange yield); conditions: MHC class I binding score; binding to HLA-A*02:01 ranged by peptide exchange yield (UV-ligand exchange, β2m ELISA)
Summary of the method: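 UV-exchange pMHC monomers, 100-fold diluted → streptavidin capture 1 h 37 °C → HRP anti-β2m 2 ug/ml 1 h 37 °C → TMB, A450. Yield from HLA-A*02:01/MLA-001 monomer standard curve, 15-500 ng/ml. Only stably bound peptides keep β2m-containing complexes intact.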

Row | Substance | Wells positive [%] (CD8+ T cells) | Peptide Exchange (HLA-A*02:01) | wells (in vitro immunogenicity, positive wells) (CD8+ T cells)
1 | 1 (AIPPSFASIFL; listed as Homo sapiens) [compound 1] | ″+++″ (50%-69% = +++) | ″+++″ (≥50 = +++) | –
2 | 2 (ALHRPDVYL; listed as Homo sapiens) [compound 2] | ″+″ (<20% = +) | ″+++″ (≥50 = +++) | –
3 | 5 (ALIFKIASA; listed as Homo sapiens) [compound 5] | ″+++″ (50%-69% = +++) | ″+++″ (≥50 = +++) | –
4 | 17 (ALTKTNLQL; listed as Homo sapiens) [compound 17] | ″+″ (<20% = +) | ″+++″ (≥50 = +++) | –
5 | 26 (AVLLVLPLV; listed as Homo sapiens) [compound 26] | ″+″ (<20% = +) | ″+++″ (≥50 = +++) | –
6 | 32 (FIDKFTPPV; listed as Homo sapiens) [compound 32] | ″++++″ (> = 70% = ++++) | ″++++″ (≥75% = ++++) | –
7 | 49 (FLTDLFAQL; listed as Homo sapiens) [compound 49] | ″++″ (20%-49% = ++) | ″++++″ (≥75% = ++++) | –
8 | 54 (FLYPFPLALF; listed as Homo sapiens) [compound 54] | ″+″ (<20% = +) | ″+++″ (≥50 = +++) | –
9 | 56 (FVFEAPYTL; listed as Homo sapiens) [compound 56] | ″++″ (20%-49% = ++) | ″+++″ (≥50 = +++) | –
10 | 57 (GLSEISLRL; listed as Homo sapiens) [compound 57] | ″+″ (<20% = +) | ″++++″ (≥75% = ++++) | –
11 | 69 (GLHQREIFL; listed as Homo sapiens) [compound 69] | ″+″ (<20% = +) | ″+++″ (≥50 = +++) | –
12 | 81 (WLVGQEFEL; listed as Homo sapiens) [compound 81] | ″+″ (<20% = +) | ″+++″ (≥50 = +++) | –
13 | 86 (HLYPGAVTI; listed as Homo sapiens) [compound 86] | ″+″ (<20% = +) | ″+++″ (≥50 = +++) | –
14 | 96 (ILIDKTSFV; listed as Homo sapiens) [compound 96] | ″+″ (<20% = +) | ″+++″ (≥50 = +++) | –
15 | 100 (ILNNEVFAI; listed as Homo sapiens) [compound 100] | ″++″ (20%-49% = ++) | ″+++″ (≥50 = +++) | –
16 | 101 (ILVVIEPLL; listed as Homo sapiens) [compound 101] | ″+″ (<20% = +) | ″++++″ (≥75% = ++++) | –
17 | 102 (IQDRAVPSL; listed as Homo sapiens) [compound 102] | ″+″ (<20% = +) | ″++″ (≥20% = ++) | –
18 | 112 (KTLDVDATYEI; listed as Homo sapiens) [compound 112] | ″+″ (<20% = +) | ″+++″ (≥50 = +++) | –

Row | Substance | Wells positive [%] (CD8+ T cells) | Peptide Exchange (HLA-A*02:01) | wells (in vitro immunogenicity, positive wells) (CD8+ T cells)
19 | 114 (LIPEGPPQV; listed as Homo sapiens) [compound 114] | ″+″ (<20% = +) | ″+++″ (≥50 = +++) | –
20 | 154 (SLLAELHVLTV; listed as Homo sapiens) [compound 154] | ″+″ (<20% = +) | ″++++″ (≥75% = ++++) | –
21 | 192 (YIQEYLTLL; listed as Homo sapiens) [compound 192] | ″+″ (<20% = +) | ″+++″ (≥50 = +++) | –
22 | 197 (YLQEVPILTL; listed as Homo sapiens) [compound 197] | ″+″ (<20% = +) | ″++++″ (≥75% = ++++) | –
23 | 200 (YMFEEVPIVI; listed as Homo sapiens) [compound 200] | ″+″ (<20% = +) | ″++++″ (≥75% = ++++) | –
24 | 201 (YQLELHGIEL; listed as Homo sapiens) [compound 201] | ″+″ (<20% = +) | ″++++″ (≥75% = ++++) | –
25 | 202 (YVDDVFLRV; listed as Homo sapiens) [compound 202] | ″++″ (20%-49% = ++) | ″++++″ (≥75% = ++++) | –
26 | 220 (ALPEILFAKV; listed as Homo sapiens) [compound 220] | ″++″ (20%-49% = ++) | ″+++″ (≥50 = +++) | –
27 | 240 (ILARDILEI; listed as Homo sapiens) [compound 240] | ″+″ (<20% = +) | ″+++″ (≥50 = +++) | –
28 | 281 (NLLDDRGMTAL; listed as Homo sapiens) [compound 281] | ″+″ (<20% = +) | ″+++″ (≥50 = +++) | –
29 | 282 (LLRDGIELV; listed as Homo sapiens) [compound 282] | ″++″ (20%-49% = ++) | ″+++″ (≥50 = +++) | –
30 | 307 (LLLTKPTEA; listed as Homo sapiens) [compound 307] | ″+″ (<20% = +) | ″+++″ (≥50 = +++) | –
31 | 320 (TIAPVTVAV; listed as Homo sapiens) [compound 320] | ″+″ (<20% = +) | ″++++″ (≥75% = ++++) | –
32 | 322 (SLASIHVPL; listed as Homo sapiens) [compound 322] | ″+″ (<20% = +) | ″+++″ (≥50 = +++) | –
33 | 323 (SLDLFNCEV; listed as Homo sapiens) [compound 323] | ″+″ (<20% = +) | ″++++″ (≥75% = ++++) | –
34 | 329 (VLMDGSVKL; listed as Homo sapiens) [compound 329] | ″+++″ (50%-69% = +++) | ″++++″ (≥75% = ++++) | –
35 | 427 (LLYDAVHIV; listed as Homo sapiens) [compound 427] | – | – | ++ (20%-49% = ++)
36 | 521 (YLYGQTTTYL; listed as Homo sapiens) [compound 521] | – | – | ++ (20%-49% = ++)
